The source made the active and inactive calls. The calls are words filed in the database; no cut-off is given here.
Tests used:
PC-12 [1] = assay: Induction of neurite outgrowth in rat PC12 cells at 10 uM after 5 days; format: functional, cell-based
Histone deacetylase 2 = Histone deacetylase 2 (Homo sapiens, UniProt Q92769); assay: Inhibition of human recombinant HDAC2 expressed in baculovirus/sf9 cells using RHKKAc as substrate
[2] = biological target: Poly [ADP-ribose] polymerase 1 (Homo sapiens) (UniProt P09874); assay: Inhibition of PARP1 (unknown origin) up to 25 uM
Histone deacetylase 11 = biological target: T1, Histone deacetylase 11 (Homo sapiens, UniProt Q96DB2); assay: Inhibition of human recombinant HDAC11 expressed in baculovirus/sf9 cells using RHKKAc as substrate
T1 sequence (Q96DB2 whole entry): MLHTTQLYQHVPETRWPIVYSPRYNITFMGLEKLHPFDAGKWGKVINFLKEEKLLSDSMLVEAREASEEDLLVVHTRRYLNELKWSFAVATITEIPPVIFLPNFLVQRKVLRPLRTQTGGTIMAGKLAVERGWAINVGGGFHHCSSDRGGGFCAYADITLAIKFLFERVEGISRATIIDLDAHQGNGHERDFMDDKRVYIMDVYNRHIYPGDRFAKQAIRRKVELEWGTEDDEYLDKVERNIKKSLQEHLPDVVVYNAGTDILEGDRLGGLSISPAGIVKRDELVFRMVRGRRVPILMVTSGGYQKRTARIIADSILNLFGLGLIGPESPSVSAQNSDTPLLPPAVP

[3] = biological target: T2, Protein deacetylase HDAC6 (Homo sapiens, UniProt Q9UBN7); assay: Inhibition of human recombinant HDAC6 expressed in baculovirus/sf9 cells using RHKKAc as substrate
T2 sequence (Q9UBN7 whole entry): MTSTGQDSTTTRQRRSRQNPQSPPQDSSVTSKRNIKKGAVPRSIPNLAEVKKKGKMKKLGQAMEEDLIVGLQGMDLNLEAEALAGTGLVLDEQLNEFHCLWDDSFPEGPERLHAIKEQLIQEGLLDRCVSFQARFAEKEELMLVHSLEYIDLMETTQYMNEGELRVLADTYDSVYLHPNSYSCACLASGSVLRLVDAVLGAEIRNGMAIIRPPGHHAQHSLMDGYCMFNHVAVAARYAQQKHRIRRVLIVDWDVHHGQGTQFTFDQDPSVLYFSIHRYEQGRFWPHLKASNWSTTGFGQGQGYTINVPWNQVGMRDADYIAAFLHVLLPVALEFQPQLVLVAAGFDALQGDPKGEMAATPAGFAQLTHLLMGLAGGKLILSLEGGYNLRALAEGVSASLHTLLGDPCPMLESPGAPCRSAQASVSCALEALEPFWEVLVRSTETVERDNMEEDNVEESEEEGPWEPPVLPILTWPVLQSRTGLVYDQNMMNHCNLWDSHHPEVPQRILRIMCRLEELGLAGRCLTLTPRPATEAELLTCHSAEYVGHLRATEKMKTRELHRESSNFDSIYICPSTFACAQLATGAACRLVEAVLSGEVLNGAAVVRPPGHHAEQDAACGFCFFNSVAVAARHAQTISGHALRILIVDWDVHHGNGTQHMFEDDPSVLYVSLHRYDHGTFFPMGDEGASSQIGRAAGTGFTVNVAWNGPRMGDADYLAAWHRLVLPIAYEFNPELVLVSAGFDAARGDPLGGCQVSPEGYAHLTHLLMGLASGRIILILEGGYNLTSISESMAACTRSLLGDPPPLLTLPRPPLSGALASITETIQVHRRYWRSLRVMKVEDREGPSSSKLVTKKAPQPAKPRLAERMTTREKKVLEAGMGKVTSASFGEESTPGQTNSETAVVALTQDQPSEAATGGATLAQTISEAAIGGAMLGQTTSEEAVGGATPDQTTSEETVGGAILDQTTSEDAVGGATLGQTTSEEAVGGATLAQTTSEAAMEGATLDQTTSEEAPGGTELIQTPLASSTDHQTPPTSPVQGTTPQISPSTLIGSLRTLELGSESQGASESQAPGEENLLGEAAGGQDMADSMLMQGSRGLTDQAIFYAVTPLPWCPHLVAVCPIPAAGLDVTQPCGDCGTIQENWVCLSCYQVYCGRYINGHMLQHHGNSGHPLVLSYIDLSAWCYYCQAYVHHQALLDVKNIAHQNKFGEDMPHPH

PC-12 [4] = assay: Induction iof GAP-43 protein expression in rat PC12 cells after 48 hrs by Western blotting analysis; format: functional, cell-based
[5] = biological target: T3, Polyamine deacetylase HDAC10 (Homo sapiens, UniProt Q969S8); assay: Inhibition of human recombinant HDAC10 expressed in baculovirus/sf9 cells using RHKKAc as substrate
T3 sequence (Q969S8 whole entry): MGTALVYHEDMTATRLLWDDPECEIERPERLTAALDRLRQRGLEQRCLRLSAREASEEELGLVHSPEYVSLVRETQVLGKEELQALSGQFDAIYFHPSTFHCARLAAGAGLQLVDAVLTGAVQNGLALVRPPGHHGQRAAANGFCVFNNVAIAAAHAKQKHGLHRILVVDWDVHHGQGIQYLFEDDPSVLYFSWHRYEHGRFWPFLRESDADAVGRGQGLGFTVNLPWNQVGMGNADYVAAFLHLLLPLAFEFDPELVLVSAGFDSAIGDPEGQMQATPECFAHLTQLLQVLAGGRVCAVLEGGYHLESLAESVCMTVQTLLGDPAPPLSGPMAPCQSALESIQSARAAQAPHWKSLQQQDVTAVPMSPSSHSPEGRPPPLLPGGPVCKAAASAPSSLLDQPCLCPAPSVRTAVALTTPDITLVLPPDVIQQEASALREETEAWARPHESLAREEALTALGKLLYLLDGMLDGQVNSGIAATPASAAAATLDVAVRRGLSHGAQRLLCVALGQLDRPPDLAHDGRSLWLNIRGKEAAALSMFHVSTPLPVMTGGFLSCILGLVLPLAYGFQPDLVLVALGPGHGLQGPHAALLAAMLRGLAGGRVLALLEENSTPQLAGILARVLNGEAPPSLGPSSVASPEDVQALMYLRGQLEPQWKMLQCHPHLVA

PC-12 [6] = assay: Cytotoxicity against rat PC12 cells at 25 uM; format: cell-based; details: pc-12, 25 µM
Mus musculus [7] = assay: Antialzheimer activity in wild type learning-impaired Balb/c mouse model with hippocampal lesions at 10 mg/kg, ip administered for 30 days by rotarod test relative to vehicle-treated control; details: Hippocampus, TDE = time-dependent effect
Histone deacetylase 8 = biological target: T4, Histone deacetylase 8 (Homo sapiens, UniProt Q9BY41); assay: Inhibition of human recombinant HDAC8 expressed in baculovirus/sf9 cells using RHKAcKAc as substrate
T4 sequence (Q9BY41 whole entry): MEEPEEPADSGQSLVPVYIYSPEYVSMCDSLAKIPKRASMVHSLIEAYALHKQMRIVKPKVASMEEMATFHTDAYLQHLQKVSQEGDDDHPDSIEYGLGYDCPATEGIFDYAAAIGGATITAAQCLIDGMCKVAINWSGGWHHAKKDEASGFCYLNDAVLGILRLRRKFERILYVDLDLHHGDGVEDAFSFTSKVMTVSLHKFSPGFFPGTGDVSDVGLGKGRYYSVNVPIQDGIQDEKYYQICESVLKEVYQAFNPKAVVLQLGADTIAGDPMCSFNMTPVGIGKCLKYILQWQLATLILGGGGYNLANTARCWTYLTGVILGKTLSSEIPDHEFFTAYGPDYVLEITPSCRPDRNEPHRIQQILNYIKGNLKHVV

PC-12 [8] = assay: Induction iof GAP-43 protein expression in rat PC12 cells at 0.1 uM after 48 hrs by Western blotting analysis; format: functional, cell-based
Vero = assay: Cytotoxicity against african green monkey Vero cells at 25 uM; format: cell-based; details: chlorocebus sabaeus
PC-12 [9] = assay: Inhibition of HDAC6 in rat PC12 cells assessed as induction of alpha-tubulin acetylation after 48 hrs by Western blotting analysis; format: cell-based
Mus musculus [10] = assay: Antialzheimer activity in wild type learning-impaired Balb/c mouse model with hippocampal lesions assessed as increase in acetylated alpha-tubulin level in hippocampus region at 10 mg/kg, ip administered for 30 days by rotarod test
[11] = Cytotoxicity against human SH-SY5Y cells at 25 uM; format: cell-based
SH-SY5Y [12] = assay: Induction of neurite outgrowth in human SH-SY5Y cells at 10 uM after 5 days; format: functional, cell-based
SH-SY5Y [13] = assay: Induction of neurite outgrowth in human SH-SY5Y cells after 5 days; format: functional, cell-based; details: 120 h
PC-12 [14] = assay: Increase of synaptic activity in rat PC12 cells after 5 days by fluorescence assay; format: functional, cell-based; details: PC-12, 120 h
SH-SY5Y [15] = assay: Increase of synaptic activity in human SH-SY5Y cells after 5 days by fluorescence assay; format: functional, cell-based; details: 120 h
PC-12 [16] = assay: Induction of neurite outgrowth in rat PC12 cells after 5 days; format: functional, cell-based; details: PC-12, 120 h
Histone deacetylase 1 = Histone deacetylase 1 (Homo sapiens, UniProt Q13547); assay: Inhibition of human recombinant HDAC1 expressed in baculovirus/sf9 cells using RHKKAc as substrate
Cytochrome P450 2C9 = Cytochrome P450 2C9 (Homo sapiens, UniProt P11712); assay: Inhibition of CYP2C9 (unknown origin) using Vivid OOMR as substrate; format: ADME
Cytochrome P450 2D6 = Cytochrome P450 2D6 (Homo sapiens, UniProt P10635); assay: Inhibition of CYP2D6 (unknown origin) using 3-cyano-7-ethoxycoumarin as substrate; format: ADME
Cytochrome P450 2C19 = Cytochrome P450 2C19 (Homo sapiens, UniProt P33261); assay: Inhibition of CYP2C19 (unknown origin) using 3-cyano-7-ethoxycoumarin as substrate; format: ADME
Cytochrome P450 1A2 = Cytochrome P450 1A2 (Homo sapiens, UniProt P05177); assay: Inhibition of CYP1A2 (unknown origin) using 3-cyano-7-ethoxycoumarin as substrate; format: ADME
Cytochrome P450 3A4 = Cytochrome P450 3A4 (Homo sapiens, UniProt P08684); assay: Inhibition of CYP3A4 (unknown origin) using Vivid BOMR as substrate; format: ADME
PC-12 [17] = assay: Inhibition of HDAC6 in rat PC12 cells assessed as induction of alpha-tubulin acetylation at 10 uM after 48 hrs by Western blotting analysis; format: cell-based
PC-12 [18] = assay: Inhibition of HDAC6 in rat PC12 cells assessed as acetylation of histone H3 at 10 uM after 48 hrs by Western blotting analysis; format: cell-based

Chain of Poly [ADP-ribose] polymerase 1 (Homo sapiens) (P09874 whole entry): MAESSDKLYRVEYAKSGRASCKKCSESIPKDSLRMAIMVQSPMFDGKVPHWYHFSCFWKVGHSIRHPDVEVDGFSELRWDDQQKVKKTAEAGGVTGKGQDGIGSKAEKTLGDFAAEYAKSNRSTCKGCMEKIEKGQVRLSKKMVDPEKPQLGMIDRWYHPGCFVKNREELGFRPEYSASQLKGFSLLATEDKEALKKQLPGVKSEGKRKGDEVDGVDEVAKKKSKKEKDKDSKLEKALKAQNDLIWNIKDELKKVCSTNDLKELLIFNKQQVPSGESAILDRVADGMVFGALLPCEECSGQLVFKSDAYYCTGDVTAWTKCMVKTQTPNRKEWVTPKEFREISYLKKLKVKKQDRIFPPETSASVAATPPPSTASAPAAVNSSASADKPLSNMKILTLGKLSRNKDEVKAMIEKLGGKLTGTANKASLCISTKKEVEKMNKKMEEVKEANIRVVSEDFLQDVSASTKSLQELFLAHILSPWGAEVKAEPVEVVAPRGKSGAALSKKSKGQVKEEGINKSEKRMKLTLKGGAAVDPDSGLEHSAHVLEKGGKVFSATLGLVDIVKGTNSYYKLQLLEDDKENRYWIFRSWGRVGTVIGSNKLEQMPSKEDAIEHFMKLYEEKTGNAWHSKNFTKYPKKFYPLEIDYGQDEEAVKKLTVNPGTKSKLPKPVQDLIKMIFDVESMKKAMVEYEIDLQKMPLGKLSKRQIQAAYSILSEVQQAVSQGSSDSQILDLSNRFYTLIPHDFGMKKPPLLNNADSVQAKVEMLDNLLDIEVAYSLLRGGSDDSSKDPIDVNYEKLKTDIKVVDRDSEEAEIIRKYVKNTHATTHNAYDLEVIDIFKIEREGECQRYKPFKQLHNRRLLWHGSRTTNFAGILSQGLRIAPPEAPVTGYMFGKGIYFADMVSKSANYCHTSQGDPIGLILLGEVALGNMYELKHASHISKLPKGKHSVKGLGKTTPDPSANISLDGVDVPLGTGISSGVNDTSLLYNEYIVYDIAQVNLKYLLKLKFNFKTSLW
Chain of Histone deacetylase 2 (Q92769 whole entry): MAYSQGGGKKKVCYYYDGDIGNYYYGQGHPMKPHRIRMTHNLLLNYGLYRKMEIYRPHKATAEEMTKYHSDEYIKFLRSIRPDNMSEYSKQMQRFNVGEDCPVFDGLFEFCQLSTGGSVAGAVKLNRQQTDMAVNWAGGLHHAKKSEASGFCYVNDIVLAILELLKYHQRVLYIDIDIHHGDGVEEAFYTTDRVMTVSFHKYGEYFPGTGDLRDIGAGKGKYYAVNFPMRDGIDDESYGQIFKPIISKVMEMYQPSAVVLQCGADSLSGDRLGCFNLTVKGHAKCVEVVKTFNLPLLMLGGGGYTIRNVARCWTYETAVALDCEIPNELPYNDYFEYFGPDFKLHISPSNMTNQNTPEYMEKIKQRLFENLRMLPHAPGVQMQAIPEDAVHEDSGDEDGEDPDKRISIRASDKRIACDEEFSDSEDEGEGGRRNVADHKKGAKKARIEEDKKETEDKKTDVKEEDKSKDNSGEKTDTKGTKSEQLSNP
Chain of Histone deacetylase 1 (Q13547 whole entry): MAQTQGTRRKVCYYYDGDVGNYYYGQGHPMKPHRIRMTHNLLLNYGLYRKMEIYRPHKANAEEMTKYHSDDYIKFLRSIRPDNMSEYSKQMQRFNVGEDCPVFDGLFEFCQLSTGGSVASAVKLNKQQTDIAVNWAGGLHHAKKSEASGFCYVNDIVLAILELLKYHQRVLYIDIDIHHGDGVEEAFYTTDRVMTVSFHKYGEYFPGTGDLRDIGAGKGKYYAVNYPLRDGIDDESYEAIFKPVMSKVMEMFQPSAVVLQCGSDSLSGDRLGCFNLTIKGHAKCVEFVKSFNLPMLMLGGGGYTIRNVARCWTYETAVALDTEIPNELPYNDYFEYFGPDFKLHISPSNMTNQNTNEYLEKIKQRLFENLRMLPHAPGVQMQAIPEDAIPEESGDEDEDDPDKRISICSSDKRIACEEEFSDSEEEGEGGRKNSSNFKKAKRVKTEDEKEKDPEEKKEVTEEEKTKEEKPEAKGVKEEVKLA
Chain of Cytochrome P450 2C9 (P11712 whole entry): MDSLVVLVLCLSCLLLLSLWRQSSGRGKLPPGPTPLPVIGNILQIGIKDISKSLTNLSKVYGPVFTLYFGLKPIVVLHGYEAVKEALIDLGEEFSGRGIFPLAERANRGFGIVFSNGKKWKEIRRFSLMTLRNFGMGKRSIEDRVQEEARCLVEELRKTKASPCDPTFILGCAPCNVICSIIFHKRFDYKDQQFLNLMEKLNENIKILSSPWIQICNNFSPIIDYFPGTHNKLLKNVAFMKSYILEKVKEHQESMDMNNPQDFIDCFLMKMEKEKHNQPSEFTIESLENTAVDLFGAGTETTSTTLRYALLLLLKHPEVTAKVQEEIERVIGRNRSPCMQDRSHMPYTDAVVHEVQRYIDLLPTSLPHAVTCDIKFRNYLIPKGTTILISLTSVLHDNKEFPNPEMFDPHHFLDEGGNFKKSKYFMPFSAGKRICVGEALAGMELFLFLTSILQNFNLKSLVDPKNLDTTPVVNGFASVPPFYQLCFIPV
Chain of Cytochrome P450 1A2 (P05177 whole entry): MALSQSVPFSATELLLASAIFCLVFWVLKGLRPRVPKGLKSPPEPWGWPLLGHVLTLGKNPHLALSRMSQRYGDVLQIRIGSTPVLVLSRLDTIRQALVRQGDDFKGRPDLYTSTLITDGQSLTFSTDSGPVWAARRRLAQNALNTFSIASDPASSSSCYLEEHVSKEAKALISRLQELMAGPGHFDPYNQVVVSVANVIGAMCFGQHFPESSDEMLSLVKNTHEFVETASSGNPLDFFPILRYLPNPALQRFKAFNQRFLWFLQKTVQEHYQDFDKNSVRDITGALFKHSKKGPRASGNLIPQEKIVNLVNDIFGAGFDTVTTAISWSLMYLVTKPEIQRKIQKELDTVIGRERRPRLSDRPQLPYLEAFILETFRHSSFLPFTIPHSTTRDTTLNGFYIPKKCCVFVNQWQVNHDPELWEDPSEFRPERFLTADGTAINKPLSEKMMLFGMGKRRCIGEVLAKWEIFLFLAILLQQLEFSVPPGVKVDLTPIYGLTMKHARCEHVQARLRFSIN
Chain of Cytochrome P450 2C19 (P33261 whole entry): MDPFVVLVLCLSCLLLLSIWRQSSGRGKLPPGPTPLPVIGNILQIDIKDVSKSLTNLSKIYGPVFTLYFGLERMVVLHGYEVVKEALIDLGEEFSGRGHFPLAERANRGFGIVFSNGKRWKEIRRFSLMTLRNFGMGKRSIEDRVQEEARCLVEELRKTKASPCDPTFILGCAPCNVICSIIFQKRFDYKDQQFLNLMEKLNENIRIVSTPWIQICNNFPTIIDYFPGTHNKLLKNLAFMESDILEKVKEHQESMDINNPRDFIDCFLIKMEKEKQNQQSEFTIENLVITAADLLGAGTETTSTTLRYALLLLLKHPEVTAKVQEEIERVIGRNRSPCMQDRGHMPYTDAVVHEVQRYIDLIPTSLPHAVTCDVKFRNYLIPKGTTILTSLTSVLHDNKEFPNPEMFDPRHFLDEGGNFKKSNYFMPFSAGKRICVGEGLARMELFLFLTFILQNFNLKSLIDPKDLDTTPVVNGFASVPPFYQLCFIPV
Chain of Cytochrome P450 3A4 (P08684 whole entry): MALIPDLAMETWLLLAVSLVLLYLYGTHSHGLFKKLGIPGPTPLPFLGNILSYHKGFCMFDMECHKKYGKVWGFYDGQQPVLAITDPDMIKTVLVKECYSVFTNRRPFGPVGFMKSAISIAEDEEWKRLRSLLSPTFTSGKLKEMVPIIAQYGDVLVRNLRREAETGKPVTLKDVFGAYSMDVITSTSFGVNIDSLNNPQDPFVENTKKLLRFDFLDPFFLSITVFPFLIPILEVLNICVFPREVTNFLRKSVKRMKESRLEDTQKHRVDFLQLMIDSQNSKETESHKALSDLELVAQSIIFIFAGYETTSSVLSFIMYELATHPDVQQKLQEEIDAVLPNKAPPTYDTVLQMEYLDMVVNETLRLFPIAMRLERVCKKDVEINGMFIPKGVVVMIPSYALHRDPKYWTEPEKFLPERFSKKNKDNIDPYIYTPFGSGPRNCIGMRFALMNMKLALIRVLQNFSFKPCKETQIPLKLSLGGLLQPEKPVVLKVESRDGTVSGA
Chain of Cytochrome P450 2D6 (P10635 whole entry): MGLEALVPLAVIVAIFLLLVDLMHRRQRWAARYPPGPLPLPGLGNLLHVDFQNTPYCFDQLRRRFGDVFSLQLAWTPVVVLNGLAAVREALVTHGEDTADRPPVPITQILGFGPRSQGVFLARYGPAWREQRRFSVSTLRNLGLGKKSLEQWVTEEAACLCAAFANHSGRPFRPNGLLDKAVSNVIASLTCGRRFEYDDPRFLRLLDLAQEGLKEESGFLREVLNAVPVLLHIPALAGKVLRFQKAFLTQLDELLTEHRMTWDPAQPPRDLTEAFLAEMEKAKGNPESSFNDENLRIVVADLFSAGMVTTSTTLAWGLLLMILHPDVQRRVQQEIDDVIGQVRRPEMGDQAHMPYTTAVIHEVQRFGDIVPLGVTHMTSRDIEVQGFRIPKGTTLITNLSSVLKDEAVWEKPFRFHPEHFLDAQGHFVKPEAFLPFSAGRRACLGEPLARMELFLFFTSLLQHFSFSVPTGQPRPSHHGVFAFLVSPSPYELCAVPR

| Compound | Activity (PC-12 [1]) | IC50 (Histone deacetylase 2) | inhibition [2] | IC50 (Histone deacetylase 11) | IC50 [3] | Activity (PC-12 [4]) | Activity (PC-12 [6]) | IC50 (Histone deacetylase 8) | Activity (PC-12 [8]) | Activity (Vero) | inhibition (PC-12 [9]) | Activity [11] | Activity (SH-SY5Y [12]) | EC50 (SH-SY5Y [13]) | EC50 (PC-12 [14]) | EC50 (SH-SY5Y [15]) | EC50 (PC-12 [16]) | IC50 (Histone deacetylase 1) | inhibition (PC-12 [17]) | inhibition (PC-12 [18]) | other results |
| --- | --- | --- | --- | --- | --- | --- | --- | --- | --- | --- | --- | --- | --- | --- | --- | --- | --- | --- | --- | --- | --- |
| Cc1nc2cc(/C=C/C(=O)NO)ccc2c(=O)n1-c1ccccc1 | Active | 1.61 µM | inactive | 1.35 µM | 0.088 µM | Dose-dependent effect | Non-toxic | 3.88 µM | Active | Non-toxic | Dose-dependent effect | Non-toxic | Active |  |  |  |  |  |  |  | IC50 [5]: 17.5 µM; Activity (Mus musculus [7]): tde; Activity (Mus musculus [10]): Active |
| CCc1nc2cc(F)c(/C=C/C(=O)NO)cc2c(=O)n1CCc1ccccc1 | Active | 5.68 µM | inactive | 4.68 µM | 0.008 µM | Dose-dependent effect | Non-toxic | 0.766 µM | Active | Non-toxic | Dose-dependent effect | Non-toxic | Active | 8.6 µM | 3.3 µM | 4.3 µM | 7.2 µM | 1.94 µM |  |  |  |
| CCc1nc2c(Cc3ccc(C(=O)NO)cc3)cccc2c(=O)n1CCc1ccccc1 | Active | > 10 µM | inactive | 37.1 µM | 0.079 µM | Dose-dependent effect | Non-toxic | 0.282 µM |  | Non-toxic | Dose-dependent effect | Non-toxic | Active | 8.1 µM | 6.7 µM | 8.3 µM | 6.2 µM |  |  |  | IC50 (Cytochrome P450 2C9): 2.1 µM; IC50 (Cytochrome P450 2D6): > 10 µM; IC50 (Cytochrome P450 2C19): 3.3 µM; IC50 (Cytochrome P450 1A2): > 10 µM; IC50 (Cytochrome P450 3A4): 0.1 µM |
| CCc1nc2cc(Cc3ccc(C(=O)NO)cc3)ccc2c(=O)n1CCc1ccccc1 | Active |  | inactive | 1.32 µM | 0.009 µM | Dose-dependent effect | Non-toxic | 0.173 µM |  | Non-toxic |  | Non-toxic | Active | 9.8 µM | 3.6 µM | 5.5 µM | 9.3 µM | 4.85 µM | Active | Active |  |
| CC(/C=C/C(=O)NO)=C\[C@@H](C)C(=O)c1ccc(N(C)C)cc1 | Active |  |  |  |  | Dose-dependent effect |  |  |  |  |  |  | Active |  |  |  |  |  | Active | Active |  |

From ChEMBL document CHEMBL2424579, “Quinazolin-4-one derivatives as selective histone deacetylase-6 inhibitors for the treatment of Alzheimer's disease” (J Med Chem, 2013)
